Experimental data published in patent US5380755A, “Alkyl and alkylbenzyl ethers of substituted hydroquinones” (The Du Pont Merck Pharmaceutical Company, priority 1992, dated 1995).

How the values were obtained:
MAO B = biological target: T1, MAO B (Rattus norvegicus, UniProt P19643); assay: in vitro inhibitory action on type B monoamine oxidase in rat brain tissue (J. Neurochem., 1983, 40, 1534); assay type: biochemical; settings: 200 mM Phenethylamine[14-C] as substrate
T1 construct: two types A and B monoamine oxidase in rat brain tissue; from tissue; host or cells: rat brain
T1 sequence (P19643 1-520): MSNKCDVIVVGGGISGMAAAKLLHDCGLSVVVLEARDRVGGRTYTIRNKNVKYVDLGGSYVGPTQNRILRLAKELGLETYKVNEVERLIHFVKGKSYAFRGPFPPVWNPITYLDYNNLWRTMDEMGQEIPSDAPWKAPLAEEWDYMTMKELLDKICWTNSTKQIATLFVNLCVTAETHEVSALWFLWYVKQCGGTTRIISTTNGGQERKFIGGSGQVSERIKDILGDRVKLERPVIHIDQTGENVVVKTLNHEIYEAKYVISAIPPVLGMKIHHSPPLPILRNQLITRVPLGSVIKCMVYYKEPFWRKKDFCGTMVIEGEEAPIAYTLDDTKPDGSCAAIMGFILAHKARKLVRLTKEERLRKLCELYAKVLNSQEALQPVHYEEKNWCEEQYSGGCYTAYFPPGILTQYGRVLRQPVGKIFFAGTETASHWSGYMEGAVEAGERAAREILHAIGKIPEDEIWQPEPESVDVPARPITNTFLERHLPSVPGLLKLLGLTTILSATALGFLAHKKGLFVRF
Excerpt: This test measures the in vitro inhibitory action of the two types A and B monoamine oxidase in rat brain tissue.

MAO A / MAO B = assay: in vitro inhibitory action on types A and B monoamine oxidase in rat brain tissue: A/B selectivity; assay type: biochemical; settings: ratio MAO A / MAO B, 5-Hydroxytryptamine[14-C] 1.0 mM (MAO A), Phenethylamine[14-C] 200 mM (MAO B)
Excerpt: The compounds of the present invention are useful in the inhibition of monoamine oxidases. […] This test measures the in vitro inhibitory action of the two types A and B monoamine oxidase in rat brain tissue. […] Finally, it is expected that the compounds of the present invention may be useful in treating neurological disorders including memory disorders, cognitive dysfunction, dementia, dementia of the Alzheimer's type, Parkinson's syndrome, depression, hyperactive syndrome, schizophrenia, and changes in temperament.

IC50 (MAO B) | A/B (MAO A / MAO B) | Compound
7 µM |  | CNC(C)COc1ccc(OCc2cccc(Cl)c2)c(C(C)=O)c1 (centres unmarked) [Example 19]
0.003 µM | < 300 | C#CCN(C)C(C)COc1ccc(OCc2cccc(Cl)c2)c(C(C)=O)c1 (centres unmarked) [Example 8, N-2-[3'-Acyl-4'-(m-chlorophenylmethyloxy)phenoxy]-1-methylethyl-N-methylpropargylamine]
> 100 µM |  | CCC(=O)c1cc(OCc2ccc(F)cc2)ccc1OCCCC#N [Example 33]
0.1 µM | 400 | CC(=O)c1cc(OCc2cccc(Cl)c2)ccc1OCCCO [Example 32]
0.1 µM | > 10000 | CC(=O)c1cc(OCc2cc(C(F)(F)F)cc(C(F)(F)F)c2)ccc1OCCCC#N [Example 6, 4-{2'-Acetyl-4'-[(3,5-trifluoromethylphenyl)methyloxy]phenoxy}-butyronitrile]
